Laboratory results taken from ChEMBL document CHEMBL3813662, “Synthesis and biological activity of pyrazole analogues of the staurosporine aglycon K252c” (Bioorg Med Chem, 2016).
Activity calls are given as the source filed them. The rule behind the calls is not given here.

What was measured:
Calf thymus DNA [1] = test: Displacement of EtBr from calf thymus double stranded DNA by fluorescence spectrophotometric analysis; assay type: nucleic-acid assay, Bos taurus
[2] = biological target: T1, Serine/threonine-protein kinase pim-1 (Homo sapiens, UniProt P11309); test: Inhibition of human full length (His)6-tagged Pim-1 expressed in insect Sf21 cells using RSRHSSYPAGT as substrate measured for 30 mins by [gamma-33P]ATP-based kinase assay
Target sequence in this assay (P11309 whole entry): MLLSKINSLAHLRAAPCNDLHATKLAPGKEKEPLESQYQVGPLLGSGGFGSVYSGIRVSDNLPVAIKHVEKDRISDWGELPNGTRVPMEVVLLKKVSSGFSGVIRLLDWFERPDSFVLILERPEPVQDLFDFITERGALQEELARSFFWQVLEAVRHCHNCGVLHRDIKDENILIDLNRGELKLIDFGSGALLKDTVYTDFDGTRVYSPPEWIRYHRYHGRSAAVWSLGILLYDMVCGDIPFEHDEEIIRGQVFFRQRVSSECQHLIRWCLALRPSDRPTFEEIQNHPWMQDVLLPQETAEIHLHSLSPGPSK

Calf thymus DNA [3] = test: Binding affinity to calf thymus double stranded DNA assessed as dsDNA level causing quenching of compound fluorescence by fluorescence spectrophotometric analysis; assay type: nucleic-acid assay, Bos taurus
[4] = biological target: Serine/threonine-protein kinase pim-2 (Homo sapiens, UniProt Q9P1W9); test: Inhibition of human full length GST-tagged Pim-2 expressed in Escherichia coli using RSRHSSYPAGT as substrate measured for 30 mins by [gamma-33P]ATP-based kinase assay
[5] = biological target: T2, DNA topoisomerase 1 (Homo sapiens) (UniProt P11387); test: Inhibition of human topoisomerase1 activity at 20 uM using pBR322 plasmid DNA as substrate incubated for 30 mins by EtBr-based gel electrophoresis
T2 sequence (whole entry): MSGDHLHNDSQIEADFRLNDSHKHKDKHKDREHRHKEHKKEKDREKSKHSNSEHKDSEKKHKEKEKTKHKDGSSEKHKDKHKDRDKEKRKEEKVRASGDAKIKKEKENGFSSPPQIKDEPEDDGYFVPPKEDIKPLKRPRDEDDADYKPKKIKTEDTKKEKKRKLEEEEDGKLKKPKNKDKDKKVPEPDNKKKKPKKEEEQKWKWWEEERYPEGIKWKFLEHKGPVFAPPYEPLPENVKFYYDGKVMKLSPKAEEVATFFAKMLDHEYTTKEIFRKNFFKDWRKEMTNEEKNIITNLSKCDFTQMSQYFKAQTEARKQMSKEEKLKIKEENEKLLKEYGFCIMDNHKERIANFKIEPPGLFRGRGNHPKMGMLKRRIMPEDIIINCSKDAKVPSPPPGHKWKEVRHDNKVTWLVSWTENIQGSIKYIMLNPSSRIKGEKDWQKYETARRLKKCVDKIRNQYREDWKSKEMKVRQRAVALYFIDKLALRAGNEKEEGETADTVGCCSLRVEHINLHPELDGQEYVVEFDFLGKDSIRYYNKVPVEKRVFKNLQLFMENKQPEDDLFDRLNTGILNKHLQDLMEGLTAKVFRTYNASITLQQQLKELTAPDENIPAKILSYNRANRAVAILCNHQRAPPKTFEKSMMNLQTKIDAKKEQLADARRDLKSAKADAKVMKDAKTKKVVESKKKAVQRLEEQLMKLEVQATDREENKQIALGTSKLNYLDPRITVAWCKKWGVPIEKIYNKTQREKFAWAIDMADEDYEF

[6] = Cytotoxicity against human HCT116 cells after 72 hrs by MTT assay; assay type: functional, cell-based; conditions: HCT-116, 72 h
[7] = biological target: Protein kinase C alpha type (Homo sapiens) (UniProt P17252); test: Inhibition of human full length (His)6-tagged PKCalpha expressed in insect Sf21 cells using histone H1 as substrate assessed as residual enzyme activity at 1 uM measured for 30 mins by [gamma-33P]ATP-based kinase assay
[8] = biological target: Serine/threonine-protein kinase pim-3 (Homo sapiens, UniProt Q86V86); test: Inhibition of human full length (His)6-tagged Pim-3 expressed in insect Sf21 cells using RSRHSSYPAGT as substrate measured for 30 mins by [gamma-33P]ATP-based kinase assay
[9] = biological target: T1, Serine/threonine-protein kinase pim-1; test: Inhibition of human full length (His)6-tagged Pim-1 expressed in insect Sf21 cells using RSRHSSYPAGT as substrate assessed as residual enzyme activity at 10 uM measured for 30 mins by [gamma-33P]ATP-based kinase assay
Target sequence in this assay (P11309 whole entry, looked up): as the sequence (P11309 whole entry) above

[10] = biological target: T1, Serine/threonine-protein kinase pim-1; test: Inhibition of human full length (His)6-tagged Pim-1 expressed in insect Sf21 cells using RSRHSSYPAGT as substrate assessed as residual enzyme activity at 1 uM measured for 30 mins by [gamma-33P]ATP-based kinase assay
Target sequence in this assay (P11309 whole entry, looked up): as the sequence (P11309 whole entry) above

[11] = biological target: Protein kinase C gamma type (Homo sapiens) (UniProt P05129); test: Inhibition of human full length (His)6-tagged PKCgamma expressed in insect Sf21 cells using histone H1 as substrate assessed as residual enzyme activity at 10 uM measured for 30 mins by [gamma-33P]ATP-based kinase assay
K562 [12] = test: Cytotoxicity against human K562 cells after 72 hrs by MTT assay; assay type: functional, cell-based; conditions: K562, 72 h
[13] = biological target: Protein kinase C alpha type (Homo sapiens) (UniProt P17252); test: Inhibition of human full length (His)6-tagged PKCalpha expressed in insect Sf21 cells using histone H1 as substrate assessed as residual enzyme activity at 10 uM measured for 30 mins by [gamma-33P]ATP-based kinase assay
[14] = biological target: Protein kinase C gamma type (Homo sapiens) (UniProt P05129); test: Inhibition of human full length (His)6-tagged PKCgamma expressed in insect Sf21 cells using histone H1 as substrate assessed as residual enzyme activity at 1 uM measured for 30 mins by [gamma-33P]ATP-based kinase assay
K562 [15] = test: Cytotoxicity against human K562 cells; assay type: functional, cell-based

Serine/threonine-protein kinase pim-2, sequence (Q9P1W9 whole entry): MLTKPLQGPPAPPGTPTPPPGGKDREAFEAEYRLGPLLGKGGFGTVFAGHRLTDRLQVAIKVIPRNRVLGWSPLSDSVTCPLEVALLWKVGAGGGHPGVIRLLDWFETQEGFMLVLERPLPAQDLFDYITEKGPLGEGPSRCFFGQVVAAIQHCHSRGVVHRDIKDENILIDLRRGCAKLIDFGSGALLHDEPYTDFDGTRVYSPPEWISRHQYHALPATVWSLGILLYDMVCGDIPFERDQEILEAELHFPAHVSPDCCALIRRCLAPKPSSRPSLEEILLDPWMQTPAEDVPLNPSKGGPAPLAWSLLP

IC50 (Calf thymus DNA [1]) [µM]	IC50 [2] [µM]	IC50 (Calf thymus DNA [3]) [µM]	IC50 [4] [µM]	inhibition [5]	Activity [7] [%]	IC50 [8] [µM]	Activity [9] [%]	Activity [10] [%]	Activity [11] [%]	Activity [13] [%]	Activity [14] [%]	SMILES	IC50 [6] [µM]	IC50 (K562 [12]) [µM]	IC50 (K562 [15]) [µM]
16	0.15	90	0.59	inactive	103	0.022	2	13	91	108	101	c1ccc2c(c1)[nH]c1c3[nH]c4ccccc4c3c3[nH]ncc3c21	4.2	4.5	–
–	–	–	–	–	112	–	73	98	91	100	105	c1ccc2c(-c3cn[nH]c3-c3c[nH]c4ccccc34)c[nH]c2c1	30	18	–
–	–	–	–	–	–	–	–	–	–	–	–	O=C1NCc2c1c1c3ccccc3[nH]c1c1[nH]c3ccccc3c21 [STAUROSPORINONE]	–	–	7.8
–	–	–	–	–	117	–	67	94	92	93	100	O=c1[nH][nH]c(-c2c[nH]c3ccccc23)c1-c1c[nH]c2ccccc12	> 50	> 50	–
–	–	–	–	–	107	–	8	47	99	110	97	O=c1[nH][nH]c2c1c1c3ccccc3[nH]c1c1[nH]c3ccccc3c12	3.5	8.8	–
